Measurements: US20200131144A1, “AMINE OR (THIO)AMIDE CONTAINING LXR MODULATORS” (Phenex-FXR GmbH, priority 2017, published 2020)
Like-named read-outs stand apart in the source and are kept apart here.

Columns and labels:
LXRα full length (FL) = target: T1, LXRα full length (FL) (Homo sapiens, UniProt Q13133); test: LXR Gal4 reporter transient transfection assay, mammalian two-hybrid, FL-M2H Gal4α; assay type: cell-based; settings: HEK293 cells; inverse agonist unless *
T1 construct: the full length (FL) proteins of LXRα (amino acids 1-447); NP005684; expressed in transfected cells; host or cells: HEK293
T1 sequence (Q13133 1-447): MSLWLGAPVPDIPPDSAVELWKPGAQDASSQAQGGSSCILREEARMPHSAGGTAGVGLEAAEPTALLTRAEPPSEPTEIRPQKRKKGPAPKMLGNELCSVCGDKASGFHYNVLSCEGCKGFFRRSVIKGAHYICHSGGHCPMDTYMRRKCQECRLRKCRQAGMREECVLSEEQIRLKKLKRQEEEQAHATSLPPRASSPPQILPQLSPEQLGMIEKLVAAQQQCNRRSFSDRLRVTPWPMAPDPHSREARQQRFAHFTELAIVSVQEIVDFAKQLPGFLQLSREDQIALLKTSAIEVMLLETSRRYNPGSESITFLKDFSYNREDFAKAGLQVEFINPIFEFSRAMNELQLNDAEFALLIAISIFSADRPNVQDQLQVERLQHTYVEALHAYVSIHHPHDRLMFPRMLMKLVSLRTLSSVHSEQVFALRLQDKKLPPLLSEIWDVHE
Summary of the method: (§1)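 Mammalian two-hybrid read-out: interaction of LXRα or LXRβ (full length or ligand-binding domain, NFkB activation-domain fusions) with GAL4-fused SRC1 or NCoR domains drives GAL4-responsive firefly luciferase in HEK293 cells, normalised by Renilla cotransfection. Compounds given 4 h after transfection, ≤0.2% vehicle, cells lysed after 16 h.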

LXRβ full length (FL) = target: T2, LXRβ full length (FL) (Homo sapiens, UniProt P55055, INS174Q); test: LXR Gal4 reporter transient transfection assay, mammalian two-hybrid, FL-M2H Gal4β; assay type: cell-based; settings: HEK293 cells; inverse agonist unless *
T2 construct: the full length (FL) proteins of LXRα (amino acids 1-447); NP005684; NP009052; expressed in transfected cells; host or cells: HEK293
T2 sequence (P55055 with tags, fused parts or gaps INS174Q): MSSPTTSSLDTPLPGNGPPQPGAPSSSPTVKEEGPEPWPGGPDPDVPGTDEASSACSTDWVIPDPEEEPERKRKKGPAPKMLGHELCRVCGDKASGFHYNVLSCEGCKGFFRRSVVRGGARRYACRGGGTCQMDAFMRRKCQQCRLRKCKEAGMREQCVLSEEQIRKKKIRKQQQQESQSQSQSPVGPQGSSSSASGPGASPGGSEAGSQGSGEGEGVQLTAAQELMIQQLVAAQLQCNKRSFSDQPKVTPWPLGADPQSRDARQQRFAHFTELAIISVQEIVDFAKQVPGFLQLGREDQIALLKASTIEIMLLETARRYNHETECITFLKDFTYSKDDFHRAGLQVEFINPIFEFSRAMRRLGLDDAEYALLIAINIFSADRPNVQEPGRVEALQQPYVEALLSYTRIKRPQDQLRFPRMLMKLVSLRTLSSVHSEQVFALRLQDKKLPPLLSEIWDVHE
Summary of the method: as §1

[1] = target: T3, GST-LXRβ ligand-binding domain (Homo sapiens, UniProt P55055, INS174Q); test: TR-FRETβ activity assay (NCoA3 coactivator peptide recruitment); assay type: biochemical; settings: 1 μM 24(S)-25-epoxycholesterol as prestimulating agonist; inverse agonist unless *
T3 construct: amino acids 156-461; NP009052; made in house; host or cells: E. coli
T3 sequence (P55055 with tags, fused parts or gaps INS174Q limits assumed): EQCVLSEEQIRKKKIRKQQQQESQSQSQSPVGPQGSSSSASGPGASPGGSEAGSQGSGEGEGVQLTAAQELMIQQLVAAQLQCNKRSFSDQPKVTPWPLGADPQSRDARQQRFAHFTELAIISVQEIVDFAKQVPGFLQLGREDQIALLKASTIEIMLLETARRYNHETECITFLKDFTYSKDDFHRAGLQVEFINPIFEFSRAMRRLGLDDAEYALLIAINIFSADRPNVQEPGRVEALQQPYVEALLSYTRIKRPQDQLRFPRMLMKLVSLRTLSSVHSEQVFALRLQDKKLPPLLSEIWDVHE
Summary of the method: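 Coactivator recruitment read as TR-FRET (ex 340, em 615 and 665 nm) after 1 h equilibration at 4° C, in triplicate. Mix held 76 nM GST-tagged LXRβ LBD (aa 156-461, E. coli), 400 nM biotin-NCoA3 peptide, Tb-cryptate anti-GST, streptavidin-XL665, 240 mM KCl buffer.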

[2] = Pharmacokinetics in mice after single oral dosing, blood and liver exposure by LC-MS; assay type: in vivo, mice (C57/bl6/J); settings: single oral dose 20 mg/kg; for Kp at 12 h / Kp at 4 h: male, C57/bl6/J, mouse, liver/blood, read-out: liver/blood ratio
Description: The pharmacokinetics of the compounds was assessed in mice after single dosing and oral administrations. Blood and liver exposure was measured via LC-MS.
The study design was as follows:
Animals: C57/bl6/J (Janvier) males Diet: standard rodent chow Dose: 20 mg/kg Animal handling: animals were withdrawn from food at least 12 h before administration Design: single dose oral administration, n=3 animals per group Sacrifice: at stated time point (4, 12 or 24 h) after administration Bioanalytics: LC-MS of liver and blood samples

[3] = Short term HFD mouse model: liver and plasma exposure after multiple oral dosing; assay type: in vivo, mice (C57BL/6J); settings: C57BL/6J, HFD mice, three oral doses of 10 mg/kg each, 4 h after final dose
Source text: Short Term HFD Mouse Model:
For this, C57BL/6J were purchased from Elevage Janvier (Rennes, France) at the age of 8 weeks. After an acclimation period of two weeks, animals were prefed on a high fat diet (HFD) (Ssniff Spezialdiäten GmbH, Germany, Surwit EF D12330 mod, Cat. No. E15771-34), with 60 kcal % from fat plus 1% (w/w) extra cholesterol (Sigma-Aldrich, St. Louis, Mo.) for 5 days. Animals were maintained on this diet during treatment with LXR modulators. The test compounds were formulated in 0.5% hydroxypropylmethylcellulose (HPMC) and administered in three doses (from 1.5 to 20 mg/kg each) by oral gavage according to the following schedule: on day one, animals received treatment in the morning and the evening (ca. 17:00), on day two animals received the final treatment in the morning after a 4 h fast and were sacrificed 4 h thereafter. Animal work was conducted according to the national guidelines for animal care in Germany.
Multiple oral dosing of compounds from the present invention in mice lead to a high liver exposure with a favourable liver to plasma ratio. […] These genes are related to hepatic de-novo lipogenesis. A suppression of these genes will reduce liver fat (liver triglycerides).

[4] = target: T4, LXRβ ligand-binding domain (LBD) (Homo sapiens, UniProt P55055, INS174Q); test: LXR Gal4 reporter transient transfection assay, mammalian two-hybrid, LBD-M2H Gal4β; assay type: cell-based; settings: HEK293 cells; inverse agonist unless *
T4 construct: or LXR (amino acids 156-461); expressed in transfected cells; host or cells: HEK293
T4 sequence (P55055 with tags, fused parts or gaps INS174Q limits assumed): T3 sequence (P55055 with tags, fused parts or gaps INS174Q limits assumed)
Description: The tested compounds were usually dissolved, tested and stored as 20 mM stock solutions in DMSO. Since sulfonyl acetic acid derivatives tend to decarboxylate under these conditions, these stock solutions were prepared, tested and stored as 20 mM DMSO stock solutions containing 100 mM trifluoroacetic acid (5 equivalents). Sulfonyl acetic acid derivatives are shelf stable as solid at rt for long time as reported by Griesbrecht et al. (Synlett 2010:374) or Faucher et al. (J. Med. Chem. 2004; 47:18).
LXR Gal4 Reporter Transient Transfection Assays
LXRα and LXRβ activity status was determined via detection of interaction with coactivator and corepressor proteins in mammalian two-hybrid experiments (M2H). For this, via transient transfection the full length (FL) proteins of LXRα (amino acids 1-447; NP005684; SEQ ID NO:1) or LXRβ-(amino acids 1-461; NP009052; SEQ ID NO:2) or the ligand-binding domains (LBD) of LXRα (amino acids 155-447 SEQ ID NO:3) or LXR (amino acids 156-461; SEQ ID NO:4) were expressed from pCMV-AD (Stratagene) as fusions to the transcriptional activation domain of NFkB. As cofactors, domains of either the steroid receptor coactivator 1 (SRC1; amino acids 552-887; SEQ ID NO:5) or of the corepressor NCoR (amino acids 1906-2312; NP006302; SEQ ID NO:6) were expressed as fusions to the DNA binding domain of the yeast transcription factor GAL4 (from pCMV-BD; Stratagene). Interaction was monitored via activation of a coexpressed Firefly Luciferase Reporter gene under control of a promoter containing repetitive GAL4 response elements (vector pFRLuc; Stratagene). Transfection efficiency was controlled via cotransfection of constitutively active pRL-CMV Renilla reniformis luciferase reporter (Promega). HEK293 cells were grown in minimum essential medium (MEM) with 2 mM L-glutamine and Earle's balanced salt solution supplemented with 8.3% fetal bovine serum, 0.1 mM non-essential amino acids, 1 mM sodium pyruvate, at 37° C. in 5% CO2. 3.5×10^4 cells/well were plated in 96-well cell culture plates in growth medium supplemented with 8.3% fetal bovine serum for 16-20 h to—90% confluency. For transfection, medium was taken off and LXR and cofactor expressing plasmids as well as the reporter plasmids are added in 30 μL OPTIMEM/well including polyethylene-imine (PEI) as vehicle. Typical amounts of plasmids transfected/well: pCMV-AD-LXR (5 ng), pCMV-BD-cofactor (5 ng), pFR-Luc (100 ng), pRL-CMV (0.5 ng). Compound stocks were prepared in DMSO, prediluted in MEM to a total volume of 120 μL, and added 4 h after addition of the transfection mixture (final vehicle concentration not exceeding 0.2%). Cells were incubated for additional 16 h, lysed for 10 min in 1×Passive Lysis Buffer (Promega) and Firefly and Renilla luciferase activities were measured sequentially in the same cell extract using buffers containing D-luciferine and coelenterazine, respectively. Measurements of luminescence were done in a BMG-luminometer.

Row | Structure (SMILES) | EC50 (LXRα full length (FL)) [µM] | EC50 (LXRβ full length (FL)) [µM] | EC50 [1] [µM] | Kp at 12 h ([2]; time point 12 h) | blood/plasma exposure ([2]; time point 12 h) [µM] | liver exposure ([2]; time point 12 h) [µM] | Kp at 4 h ([2]; time point 4 h) | blood/plasma exposure ([2]; time point 4 h) [µM] | liver exposure ([2]; time point 4 h) [µM] | concentration at 4 h ([3]; liver, read-out: liver exposure, 4 h) [µM] | Kp at 4 h ([3]; liver/plasma, read-out: liver/plasma ratio, 4 h) | concentration at 4 h ([3]; plasma, read-out: plasma exposure, 4 h) [µM] | EC50 [4] [µM]
1 | Cc1ccc2c(F)cccc2c1C(=O)N(Cc1ccc(-c2cccc(C(C)(C)C(=O)O)c2)cc1)Cc1ccc(C(F)(F)F)o1 [27/12] | < 0.1 | < 0.1 | < 0.1 | 11 | 3.99 | 43.7 |  |  |  |  |  |  | 
2 | Cc1c(CN(Cc2ccc(-c3cccc(C(C)(C)C(=O)O)c3)cc2)Cc2ccc(C(F)(F)F)o2)c2ccccc2n(C)c1=O [27/23] | < 0.1 | < 0.1 | 0.1 to 1 |  |  |  | 19 | 0.15 | 2.9 |  |  |  | 
3 | Cc1ccc2ccccc2c1CN(Cc1ccc(-c2cccc([C@@H](C)C(=O)O)c2)cc1)Cc1ccc(C(F)(F)F)o1 [27/72] | < 0.1 |  | 0.1 to 1 |  |  |  |  |  |  | 2.02 | 1.4 | 1.44 | 
4 | Cc1ccc2ccccc2c1CN(Cc1ccc(-c2cccc(S(=O)(=O)CC(=O)O)c2)cc1)Cc1ccc(C(F)(F)F)o1 [Example 7/1] | 0.1 to 1 | < 0.1 | 1 to 10 |  |  |  | 86 | 0.21 | 18 |  |  |  | 
5 | Cc1cc(C)c(CN(Cc2ccc(-c3cccc(C(C)(C)C(=O)O)c3)cc2)Cc2ccc(C(F)(F)F)o2)c(C)c1 [Example 10] | 0.1 to 1 | 0.1 to 1 | < 0.1 | 2.7 | 0.57 | 1.5 |  |  |  |  |  |  | 
6 | Cc1nc2ccccc2nc1CN(Cc1ccc(-c2cccc(C(C)(C)C(=O)O)c2)cc1)Cc1ccc(C(F)(F)F)o1 [Example 25] |  |  | > 10 |  |  |  |  |  |  |  |  |  | 0.1 to 1
